Literature values, collected in patent publication US20220339295A1, “FULLERENE GALLIUM P[…] METHODS” (Exothule Inc., priority 2020, published 2022).

Experiments:
transferrin = transferrin (Homo sapiens, UniProt P02787); conditions: relative to Fe3+
Chain of transferrin (P02787 20-698, species assumed): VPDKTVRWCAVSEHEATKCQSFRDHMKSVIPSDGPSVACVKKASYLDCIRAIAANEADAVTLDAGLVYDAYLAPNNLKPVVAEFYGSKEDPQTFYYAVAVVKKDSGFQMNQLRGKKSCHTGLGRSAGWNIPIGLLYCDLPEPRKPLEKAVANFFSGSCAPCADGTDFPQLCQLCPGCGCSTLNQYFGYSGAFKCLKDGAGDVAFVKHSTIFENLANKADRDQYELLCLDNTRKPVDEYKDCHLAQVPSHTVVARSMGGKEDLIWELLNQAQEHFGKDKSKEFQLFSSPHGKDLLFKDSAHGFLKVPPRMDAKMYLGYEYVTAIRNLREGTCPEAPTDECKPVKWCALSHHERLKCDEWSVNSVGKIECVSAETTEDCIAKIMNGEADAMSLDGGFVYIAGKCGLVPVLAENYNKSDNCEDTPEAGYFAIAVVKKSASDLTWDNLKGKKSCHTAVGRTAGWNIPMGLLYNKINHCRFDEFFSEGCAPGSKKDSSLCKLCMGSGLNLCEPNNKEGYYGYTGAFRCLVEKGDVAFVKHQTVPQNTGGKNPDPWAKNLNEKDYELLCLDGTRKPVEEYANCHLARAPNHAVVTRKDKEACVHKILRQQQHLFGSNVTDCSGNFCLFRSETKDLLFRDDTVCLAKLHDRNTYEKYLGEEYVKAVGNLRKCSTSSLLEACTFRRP

[Ga] [gallium]
binding in transferrin, times less effectively than Fe3+ (transferrin): 300 times
gallium excreted in urine (after 24 hours): 69%
gallium excreted (in 48 hours): 91%
